Reference: patent US7745001B2, “Synthesis of nanoassemblies containing luminescent quantum dots and magnetic nanoparticles” (University of New Orleans Research and Technology …, priority 2004, dated 2010)

Molecular target: Concanavaline A (Con A) (Canavalia ensiformis, UniProt P02866)
Test: dextran-Con A binding (dissociation constant)
Text: The glyconanospheres of the present invention can contain dextran molecules (or could contain other polysaccharides) on their surface that interact strongly with carbohydrate binding proteins. These glyconanospheres can be used for real-time monitoring of protein carbohydrate interactions. The inventors in their studies of the present invention focused on lectins, which are sugar binding proteins. In particular the inventors worked with Concanavaline A (Con A) which binds glycosylic residues in carbohydrates with high affinity (the dissociation constant of dextran-Con A was found in studies of the present inventors to be about 1 nanomolar).

dextran
Kd: ~1 nM
